Common to all, as to type: cell-based, human rhinovirus
For assay [1], the system named is HRV-2. Put plainly: Cytopathic effect inhibition assay (MTT), HRV-2 in HeLa cells. The note with it: read-out: IC50 (95% CL) HRV-2. As to the method: (§1) Monolayers of HeLa and MRC5 cells were seeded onto a 96-well culture plate as stated previously. Subsequently, 90 μL media containing several different concentrations (1–1000 μg/mL) of each test material in DMSO was put into the wells, and then 10 μL of 10×TCID50 of the virus stock was added to produce an appropriate CPE within 2 days after infection. Ribavirin served as a reference control and was similarly prepared. Negative controls consisted of the DMSO solution. Viral inhibition rate (VIR) (%) was calculated according to the formula [21], VIR = (A tV—A cV)/(A cd—A cV) × 100, where A tV is the optical density measured with a given concentration of the test compound in HRV infected cells; A cV is the optical density measured for the control untreated HRV infected cells; A cd is the optical density measured for the control untreated HRV uninfected cells.
(§2) The CC50 and IC50 values were determined using GraphPad Prism 5 software program (GraphPad Software, La Jolla, CA). […] The selectivity index (SI) was determined as the ratio of CC50 to IC50 [23]. All data represent the mean ± SD of duplicate or triplicate samples of three independent experiments. Statistical analyses were carried out using SAS 9.13 program (SAS Institute, Cary, NC). Data from two groups were analyzed by a Student’s t-test, and multiple groups were analyzed by a one-way analysis of variance and Bonferroni multiple comparison post-test.

Assay [2] has as its system two HRVs (HRV-2 and HRV-4). Put plainly: Cytopathic effect inhibition assay, summary over both serotypes. The note with it: Rhinovirus A; range over HRV-2 and HRV-4, HeLa and MRC5 cells; read-out: IC50 toward two HRVs (range). As to the method: as §1, §2
In assay [3] the test system is HRV-4. Briefly: Cytopathic effect inhibition assay (MTT), HRV-4 in HeLa cells. The following applies: read-out: IC50 (95% CL) HRV-4. As to the method:
Extraction procedures of air-dried root of P. lactiflora were performed as described previously by Ngan et al.. For isolation of active principles, viral CPE inhibition assay toward HRV-4 in HeLa cell was used. […]. Column fractions were monitored by TLC on silica gel plates developed with chloroform and methanol (7:3 by volume) mobile phase. Fractions with similar R f values on the TLC plates were pooled. Active fractions 4 to 5 (EI, 2.44 g) and 7 (EII, 0.569 g) were obtained. The active fraction EI was rechromatographed on a silica gel column by elution with chloroform and methanol (70:30 by volume) to give nine fractions (each about 450 mL). A preparative HPLC was used for separation of constituents from the active fractions 3 to 5 (0.176 g). The column was a 4.6 mm i.d. × 150 mm Eclipse XDB-C18 (Agilent, Santa Clara, CA) using a mobile phase of methanol and water (3:7 by volume) at a flow rate of 0.5 mL/min. Chromatographic separations were monitored using a UV detector at 260 nm. […]. The three antiviral principles were characterized as paeonol (PA) (1), gallic acid (GA) (2), and 1,2,3,4,6-penta-O-galloyl-β-D-glucopyranose (PGG) (3) (Fig 1) by spectroscopic analyses, including MS and NMR. PA (1): compound 1 was isolated as an antibacterial principle from P. lactiflora root in our previous work, and the spectral data of compound 1 was largely identical to the published data. GA (2) was identified on the basis of the following evidence: white powder. UV (MeOH): λmax nm = 260. FT-IR: v max cm^–1 = 3491–3063 (OH stretch), 1608 (aromatic C = C). […] The interpretations of proton and carbon signals of compound 2 were largely consistent with those of Sakar et al.. PGG (3): compound 3 was isolated as an antibacterial principle from P. lactiflora root in our previous work, and the spectral data of compound 3 was largely identical to the published data.
as §1, §2

Assay [4] relates to HRV-4. Put plainly: Virus titration assay, HRV-4 in MRC5 cultures. The following applies: PGG 20 μg/mL, PA 100 μg/mL, ribavirin 100 μg/mL; for Log (TCID50/mL) ± SE HRV-4: infected MRC5 cultures, 48 h, infected untreated control 3.81; for Reduction of virus replication (Log (TCID50/mL)) ± SE HRV-4: vs infected untreated control. As to the method:
(§3) Virus titers in infected MRC-5 cultures treated with PA and PGG were measured as TCID50 using MTT-based titration method. In brief, MRC5 cells were seeded at 10^5 cells/mL in a 6-well plate. After 24 h, the cell monolayers were treated with 100 μg/mL PA or 20 μg/mL PGG and infected with HRV-2 or HRV-4 in a concentration of 10×TCID50/mL. Uninfected untreated and infected untreated cultures were included in the assay. The 100 μg/mL of ribavirin was used as a reference control. After 48 h incubation at 37°C, the cultures were frozen and thawed at −80°C/25°C. Cell debris was removed by centrifugation (2000 rpm) and the virus supernatants were collected. Virus titration was then performed in HeLa cell cultures. Initially, a 1:10 dilution of each supernatant was prepared followed by 10 serial 2-fold-dilutions, and added to HeLa cell monolayers. After 48 h, cell mortality was measured using an MTT assay stated previously. Graphs were built by plotting dead cell percentages toward virus dilution factors of each virus supernatant. The 50% infectivity point was calculated through a linear regression analysis of the curve.

Assay [5] has as its system HRV-2. Briefly: Virus titration assay, HRV-2 in MRC5 cultures. The note with it: PGG 20 μg/mL, PA 100 μg/mL, ribavirin 100 μg/mL; for Log (TCID50/mL) ± SE HRV-2: infected MRC5 cultures, 48 h, infected untreated control 3.93; for Reduction of virus replication (Log (TCID50/mL)) ± SE HRV-2: vs infected untreated control. As to the method: as §3
Setting [6] is: Human rhinovirus sp., HRV4, HeLa.

The results in this text go back to article PMC4393083, “Antiviral Activity and Possible Mechanism of Action of Constituents Identified in Paeonia lactiflora Root toward Human Rhinoviruses” (PLoS ONE, 2015).

Like-named read-outs stand apart in the source and are kept apart here.

Consider `COc1ccc(C(C)=O)c(O)c1` [PA, paeonol], for which the half-maximal inhibitory concentration (IC50) in the assay with HRV-2 [1] (Rhinovirus A, HRV2, HeLa) worked out at 608 µM. In the assay with HRV-2 [1], the IC50 is 608 µM. Also, in assay [2], the IC50 was 492 to 608 µM. In the assay with HRV-4 [3] (setting [6]), the IC50 came to 514 µM. Besides, the IC50 in the assay with HRV-4 [3] worked out at 514 µM. In the assay with HRV-4 [4], the “reduction of the HRV-4 titer” value is 27.6%, the “Log (TCID50/mL) ± SE HRV-4” value is 2.76 ± 0.024 b Log (TCID50/mL) and the “Reduction of virus replication (Log (TCID50/mL)) ± SE HRV-4” value (“Reduction … (Log (TCID50/mL)) ± SE HRV-4” below) is reported as 1.05 ± 0.023 Log (TCID50/mL). In the assay on HRV-2 [5], the “reduction of the HRV-2 titer” value was found to be 22.4%, the “Log (TCID50/mL) ± SE HRV-2” value is on record as 3.05 ± 0.046 b Log (TCID50/mL) and the “Reduction of virus replication (Log (TCID50/mL)) ± SE HRV-2” value (from here on “Reduction … (Log (TCID50/mL)) ± SE HRV-2”) is 0.88 ± 0.046 Log (TCID50/mL).
`O=C(OC[C@H]1O[C@@H](OC(=O)c2cc(O)c(O)c(O)c2)[C@H](OC(=O)c2cc(O)c(O)c(O)c2)[C@@H](OC(=O)c2cc(O)c(O)c(O)c2)[C@@H]1OC(=O)c1cc(O)c(O)c(O)c1)c1cc(O)c(O)c(O)c1` [PGG, 1,2,3,4,6-penta-O-galloyl-β-D-glucopyranose]: the IC50 is 11.6 µM with HRV-2 [1] (Rhinovirus A, HRV2, HeLa); 11.6 µM in the assay on HRV-2 [1]; 11.6 to 17.9 µM in assay [2]; 14.4 µM with HRV-4 [3] (setting [6]); 14.4 µM in the assay with HRV-4 [3]. Further, in the assay on HRV-4 [4], the “reduction of the HRV-4 titer” value is on record as 20.7%. Also, the “Log (TCID50/mL) ± SE HRV-4” value with HRV-4 [4] was 3.04 ± 0.038 c Log (TCID50/mL). Further, the “Reduction … (Log (TCID50/mL)) ± SE HRV-4” value with HRV-4 [4] is on record as 0.79 ± 0.038 Log (TCID50/mL). Moreover, the “reduction of the HRV-2 titer” value in the assay on HRV-2 [5] is 17.3%. For the same molecule, the “Log (TCID50/mL) ± SE HRV-2” value with HRV-2 [5] was 3.25 ± 0.075 b ^b Log (TCID50/mL). Also, the “Reduction … (Log (TCID50/mL)) ± SE HRV-2” value in the assay with HRV-2 [5] is on record as 0.68 ± 0.075 Log (TCID50/mL).
As for `NC(=O)c1ncn([C@@H]2O[C@H](CO)[C@@H](O)[C@H]2O)n1` [Ribavirin, reference compound], the half-maximal inhibitory concentration (IC50) with HRV-2 [1] (Rhinovirus A, HRV2, HeLa) is 304 µM; in the assay with HRV-2 [1] it was 304 µM; in assay [2], 240 to 324 µM; with HRV-4 [3] (setting [6]), 324 µM; with HRV-4 [3], 324 µM. Moreover, the “reduction of the HRV-4 titer” value with HRV-4 [4] worked out at 36.0%. For the same molecule, in the assay with HRV-4 [4], the “Log (TCID50/mL) ± SE HRV-4” value is on record as 2.44 ± 0.024 a Log (TCID50/mL). Further, the “Reduction … (Log (TCID50/mL)) ± SE HRV-4” value in the assay on HRV-4 [4] was 1.37 ± 0.023 Log (TCID50/mL). Besides, the “reduction of the HRV-2 titer” value in the assay on HRV-2 [5] is given as 30.3%. For the same molecule, the “Log (TCID50/mL) ± SE HRV-2” value in the assay on HRV-2 [5] is given as 2.74 ± 0.020 a Log (TCID50/mL). Also, the “Reduction … (Log (TCID50/mL)) ± SE HRV-2” value with HRV-2 [5] is on record as 1.19 ± 0.020 Log (TCID50/mL).
